From the Bradley open melting point set (2014)
Several values for one entry are separate records, joined by “and”; a condition that tells them apart may be missing. Identical values can stand only once.

Row | SMILES | melting point
1 | CCNc1nc(Cl)nc(NCC)n1 [2-chloro-4,6-bis(ethylamino)-1,3,5-triazine] | 228 °C
2 | O=C(CCBr)N1CCN(C(=O)CCBr)CC1 [pipobroman] | 106 °C
3 | CCOC(=O)c1ccc2c(c1)no[n+]2[O-] [ethyl benzofuroxan-5-carboxylate] | 67 °C
4 | O=C(CCCN1CCC(O)(c2ccc(Cl)cc2)CC1)c1ccc(F)cc1 [haloperidol] | 152 °C
5 | Brc1ccccc1I [o-bromoiodobenzene] | 10 °C
6 | NC(=O)c1ccccc1-c1ccccc1 [o-phenylbenzamide] | 177 °C
7 | CCCCCCC [heptane] | -91 °C and -90.6 °C
8 | OCc1ccccc1OC1OC(CO)C(O)C(O)C1O (stereo unspecified) [2-(Hydroxymethyl)phenyl hexopyranoside] | 199 °C
9 | CCCCCCCCBr [1-bromooctane] | -55 °C
10 | c1ccc(P(c2ccccc2)c2ccccc2)cc1 [Triphenylphosphine] | 80.5 °C
11 | CCCOC(C)=O [Propyl Acetate] | -93 °C
12 | CCCCOC(=O)c1ccccc1C(=O)OCCCC [di-n-butyl phthalate] | -35 °C
13 | COCCOCCOC [2-methoxyethyl_ether] | -64 °C
14 | C1CCC(C2CCCCC2)CC1 [dicyclohexyl] | 4 °C
15 | c1ccc2c(c1)[nH]c1ccccc12 [carbazole] | 247 °C and 243 °C
16 | Cc1cccc(C)c1C [1,2,3-Trimethylbenzene] | -25 °C
17 | Cc1cccc(C=O)n1 [6-methylpyridine-2-carboxaldehyde] | 31 °C
18 | OB(O)c1cc(C(F)(F)F)cc(C(F)(F)F)c1 [3,5-bis(trifluoromethyl)benzeneboronic acid] | 222 °C
19 | SCCS [1,2-ethanedithiol] | -41 °C
20 | c1ccc(Cc2ccccc2)cc1 [diphenylmethane] | 90.5 °C
21 | N[C@@H](Cc1ccc(O)c(O)c1)C(=O)O [Levodopa] | 277 °C
22 | O=C1CCN(c2ccccc2)N1 [1-Phenylpyrazolidin-3-one] | 122 °C

Row | SMILES | melting point
23 | C#CCCCCCCCCC [1-undecyne] | -25 °C
24 | CCCCCCC(C)C [2-methyloctane] | -80 °C
25 | O=C(c1ccccc1)c1ccc(C(F)(F)F)cc1 [FXFFR DVR] | 116 °C
26 | CC#CCOS(=O)(=O)c1ccc(C)cc1 [2-butynyl p-toluenesulfonate] | 48 °C
27 | CC#N [methyl_cyanide] | -46 °C
28 | CC(Br)C(C)(C)C (stereo unspecified) [2-bromo-3,3-dimethylbutane] | 25 °C
29 | COc1cc(C=O)cc(Br)c1O [5-bromovanillin] | 164 °C
30 | Cc1nc(N)ccc1C#N [6-amino-3-cyano-2-methylpyridine] | 165 °C
31 | CC(=O)C=Cc1oc2ccc(Cl)cc2c1-c1ccc(C)o1 | 119 °C
32 | OB(O)c1cccc(CBr)c1 [3-(bromomethyl)benzeneboronic acid] | 215 °C
33 | C=C1[C@@H]2CC[C@@H](C2)C1(C)C [camphene] | 35 °C
34 | Clc1ccc(COC(Cn2ccnc2)c2ccc(Cl)cc2Cl)cc1 (stereo unspecified) [Ecostatin] | 87 °C
35 | CC12CCC(C(=O)C1=O)C2(C)C (stereo unspecified) [camphorquinone] | 200 °C
36 | O=C2\C=C(/N(N2c1ccccc1)C)C [antipyrine] | 111 °C and 112 °C and 109 °C
37 | N#CC(CCc1ccc(Cl)cc1)(Cn1cncn1)c1ccccc1 (stereo unspecified) [fenbuconazole] | 125 °C
38 | OCCCCO [1,4-butanediol] | 20 °C
39 | CC12CCC(C1(C)C)C(C/C=C\c1ccccc1)(C1(C/C=C/c3ccccc3)C(=O)C3(C)CCC1C3(C)C)C2=O (stereo unspecified) | 152 °C
40 | CCCCOB(OCCCC)OCCCC [Tributyl borate] | -70 °C
41 | O=C(O)c1ccccc1I [2-Iodobenzoic acid] | 162 °C
42 | CCOc1ccc(NC(C)=O)cc1 [4-ethoxyacetanilide] | 135 °C
43 | C1O[C@@H]1[C@H]1CO1 [butadiene diepoxide] | -19 °C
44 | CI [Iodomethane] | -64 °C

Row | SMILES | melting point
45 | COc1cc(Cl)ccc1C(=O)O [4-chloro-2-methoxybenzoic acid] | 147 °C
46 | CCc1ccc(C)nc1N [2-amino-3-ethyl-6-methylpyridine] | 47 °C
47 | C=CC1(C(C)CCC)C(=O)NC(=O)NC1=O (stereo unspecified) [vinylbital] | 90 °C
48 | O=C(O)CCI [3-iodopropionic acid] | 82 °C
49 | C1CO1 [Oxirane] | -111 °C
50 | CS(=O)(=O)c1ccccc1 [methyl phenyl sulfone] | 87 °C
51 | NCCCCN [Putrescine] | 27.5 °C
52 | BrCCOc1ccccc1 [2-phenoxyethyl bromide] | 33 °C
53 | Clc1nc(Cl)nc(Cl)n1 [2,4,6-Trichloro-1,3,5-triazine] | 146 °C
54 | Clc1cccc(-c2nnn[nH]2)c1 [5-(3-chlorophenyl)-1h-tetrazole] | 140 °C
55 | O=C(Oc1ccccc1)c1ccccc1O [phenyl salicylate] | 42.2 °C
56 | C#CC1(O)CCC2C3CCc4cc(O)ccc4C3C(OC)CC21C (stereo unspecified) [moxestrol] | 280 °C
57 | Brc1ccc(Br)cc1 [1,4-dibromobenzene] | 87.3 °C and 87 °C and 88 °C
58 | C=C(CC1c2ccccc2C(=O)N1Cc1ccccc1)c1ccccc1 (stereo unspecified) [2-Benzyl-3-(2-phenyl-2-propenyl)isoindolin-1-one] | 70.5 °C
59 | CN(C)C=O [dimethylformamide] | -61 °C
60 | O=C(O)C(F)(F)C(F)(F)C(F)(F)C(F)(F)C(F)(F)C(F)(F)C(F)(F)F [Pentadecafluorooctanoic acid] | 55.5 °C
61 | CCCCCCCCCC=O [decanal] | -5 °C
62 | OCc1ccnc(Br)c1 [2-bromo-4-pyridinemethanol] | 61 °C
63 | O=C1NN(c2ccccc2)C(=O)C1c1ccccc1 (stereo unspecified) [phenopyrazone] | 233 °C
64 | CN1CCN(CCCN2c3ccccc3Sc3ccccc32)CC1 [perazine] | 53 °C
65 | Cc1ccccc1C#N [o-tolunitrile] | 13 °C
66 | COc1ccc(B(O)O)cc1C [4-methoxy-3-methylbenzeneboronic acid] | 215 °C

Row | SMILES | melting point
67 | CCOC(=O)c1c(SC)n[nH]c1N | 143 °C
68 | Cc1ccc(C)c(B(O)O)c1 [2,5-dimethylbenzeneboronic acid] | 180 °C
69 | CC(O)c1c(F)c(F)c(F)c(F)c1F (stereo unspecified) [1-(pentafluorophenyl)ethanol] | 33 °C
70 | CC(C)CC(=O)O [3-methylbutanoic_acid] | -30 °C
71 | O=C5\C=C4/C(C3CCC2(C(CCC2OC(=O)c1ccccc1)C3CC4)C)(C)CC5 (stereo unspecified) [Testosterone benzoate] | 195 °C
72 | Clc1cc(Cl)c(Cl)cc1Cl [1,2,4,5-tetrachlorobenzene] | 140 °C
73 | O=C(O)c1ccc(O)cc1O [2,4-Dihydroxybenzoic Acid] | 226 °C
74 | CCOS(=O)(=O)c1ccc(C)cc1 [ethyl_p-toluenesulfonate] | 34 °C
75 | COC(=O)c1ccc(C(=O)OC)nc1 [dimethyl pyridine-2,5-dicarboxylate] | 162 °C
76 | CC=C(C)C [2-methyl-2-butene] | -134 °C
77 | N#CCCCCCCC#N [1,6-dicyanohexane] | -3 °C
78 | Cc1cc(/C=C2\S/C(=N\c3ccccc3)N(CC#N)C2=O)c(C)n1-c1ccc(C(F)(F)F)cc1 [OSM-S-43] | 73 °C
79 | CCCCCCCCCCCO [Undecan-1-ol] | 11 °C
80 | N#Cc1ccc(O)c(Cl)c1 [3-chloro-4-hydroxybenzonitrile] | 148 °C
81 | COS(=O)(=O)c1ccc(C)cc1 [methyl p-toluenesulfonate] | 26 °C
82 | C=CC(=O)OCC [Ethyl acrylate] | -71 °C
83 | OCc1ccc(-c2ccccc2)cc1 [4-biphenylmethanol] | 46 °C
84 | CCCCCCCCC(=O)O [nonanoic_acid] | 12 °C
85 | [O-]/[N+](=N\c1ccccc1)c1ccc(/N=N/c2ccc(/[N+]([O-])=N/c3ccccc3)cc2)cc1 [(E)-bis{4-[(Z)-phenyl-NNO-azoxy]phenyl}diazene] | 139 °C
86 | O=C(O)CCc1ccc(B(O)O)cc1 [4-(2-carboxyethyl)benzeneboronic acid] | 147 °C
87 | CCCCCCCC(C)=O [2-nonanone] | -15 °C
88 | COc1ccccc1O [2-Methoxyphenol] | 28 °C

Row | SMILES | melting point
89 | CCCC(N)=O [butyramide] | 116 °C
90 | COc1ccc(/C=C/[N+](=O)[O-])c(OC)c1 [2,4-dimethoxy-beta-nitrostyrene] | 100 °C
91 | Brc1n[nH]c(Br)c1Br [3,4,5-tribromo-1h-pyrazole] | 186 °C
92 | Cn1c(=O)c2c(ncn2C)n(C)c1=O [1,3,7-Trimethyl-3,7-dihydro-1H-purine-2,6-dione] | 237 °C
93 | Cc1ccc(C(=O)c2ccccc2)cc1 [4-Methylbenzophenone] | 50 °C
94 | CC(C)(C)c1cccc(C(C)(C)C)c1O [2,6-di-tert-butylphenol] | 37 °C
95 | CCOC1OC(C(N)=O)=CCC1Br (stereo unspecified) [3-bromo-2-ethoxy-3,4-dihydro-2H-pyran-6-carboxamidato] | 142 °C
96 | Brc1cccc2ccccc12 [1-bromonaphthalene] | -1 °C
97 | O=C(Nc1ccccc1)Nc1nnc(C(F)(F)F)s1 [N-phenyl-N'-[5-(trifluoromethyl)-1,3,4-thiadiazol-2-yl]urea] | 150 °C
98 | CCOP(O)OCC [diethyl phosphite] | -70 °C
99 | CC(C)C(C)C(C)C [2,3,4-trimethylpentane] | -109 °C
100 | CCCCC [pentane] | -130 °C
101 | CNc1ccc(C(=O)O)cc1 [4-(methylamino)benzoic acid] | 159 °C
102 | N#CCc1ccccc1Br [o-bromophenylacetonitrile] | -1 °C
103 | CN(C)C=O [Dimethylformamide] | -60.4 °C
104 | O=Cc1ccc(N2CCCC2)c([N+](=O)[O-])c1 [3-nitro-4-(1-pyrrolidinyl)benzaldehyde] | 103 °C
105 | CCOC(=O)c1cc(C)n(C2=CC(C)N=N2)n1 (stereo unspecified) [ethyl 5,5'-dimethyl-1'H-1,3'-bipyrazole-3-carboxylate] | 121 °C
106 | C/C=C/C=O [(2E)-But-2-enal] | -76 °C
